Here are results for 36 compounds from PubChem BioAssay (NCI).

In the test the test system is MDA-MB-468 breast. The test is described as follows: growth of human tumour cells (NCI), 48 h.

Where “and” joins values, the source holds several entries; their conditions need not be identical. Equal entries are not always repeated.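 In this assay, cells in 96-well plates receive the compound at five concentrations for 48 hours. Endpoints are linearly interpolated between the surrounding concentrations. GI50 = concentration required for 50% inhibition of growth. TGI: concentration producing complete growth inhibition.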 Bounds are passed on as bounds.

Consider `O=C(NNc1nc(Cl)nc(N2CCN(C(c3ccccc3)c3ccccc3)CC2)n1)c1ccccc1`, for which the GI50 is 1900 nM and the TGI came out at 6.03 µM.
The corresponding values for `Cc1cc(-c2ncc(CC(=O)Nc3ccc(-c4cnccn4)cn3)cc2C)ccn1` are 3180 nM and 57.5 µM.
For `CS(=O)(=O)CCNCc1nc(-c2ccc3ncnc(Nc4ccc(F)c(Cl)c4)c3c2)cs1`, in that order: 257 nM and 2.75 µM.
The corresponding values for `COc1ccc(Cl)cc1Nc1nc(C(F)(F)F)ccc1C(=O)N/N=C/c1c(Cl)cccc1Cl` are 6660 nM and greater than 100 µM.
Regarding `O=C(CSc1nc2ccccc2[nH]1)Nc1ccc(-c2nc3ccccc3s2)c(Cl)c1`, the GI50 is 4450 nM and the TGI is greater than 100 µM.
The corresponding values for `Cc1ccc(CNc2c3ccccc3nc3ccccc23)cc1` are 1490 nM and 3.68 µM.
The corresponding values for `C=C1C(=O)O[C@H]2[C@H]1CC/C(Cn1cc(CNC(=O)Cc3cn(C(=O)c4ccc(Cl)cc4)c4ccc(OC)cc34)nn1)=C\CC[C@@]1(C)O[C@@H]21` are 1220 nM and 2.95 µM.
The corresponding values for `COc1cc(C2C=C(c3cccc(NC(C)=O)c3)Nc3ncnn32)cc(OC)c1OC` (configuration not stated) are 852 nM and greater than 23.8 µM.
Consider `O=C1NCc2ccc3c(-c4cccc(Cl)c4)c[nH]c3c21`, for which the GI50 was 231 nM and the TGI is greater than 23.1 µM.
The corresponding values for `CCN(CC)CCOc1nc2ccc(OC)cc2c2c1-c1ccc(OC)cc1C2=O` are 3370 nM and 21.7 µM.
For `CC(=O)O[C@H]1CC[C@@]2(C)C(=CC[C@@H]3[C@@H]2CC[C@]2(C)C(c4cccnc4)=CC[C@@H]32)C1`, the GI50 is 2620 nM and the TGI came to 17.5 µM.
Take `O=C(CCCCCCSc1nc(-c2ccccc2)cc(-c2ccc(Cl)cc2)n1)NO`: the GI50 was 2020 nM and the TGI stood at 5.79 µM.
For `COC(=O)N[C@H]1CCc2c(Br)c(OC)c(OC)c(OC)c2-c2ccc(SC)c(=O)cc21`, in that order: less than 10 nM and 1.23 µM.
For the compound `CCOc1cc2ncc(C#N)c(Nc3ccc(OCc4cccc(F)c4)c(Cl)c3)c2cc1NC(=O)CC1CCSS1` (configuration not stated), the GI50 is 427 nM and the TGI came to 1.22 µM.
For `CCOC(=O)c1c2c(n3ccc(NC(=O)CCN4CCCC4)cc13)C(=O)c1ncccc1C2=O`, in that order: 1710 nM and 3.35 µM.
For `COc1cc(C2CC(c3ccc(C)cc3)=NN2C=O)ccc1Oc1ccnc2cc(Cl)ccc12` (configuration not stated), in that order: 2590 nM and 37.8 µM.
The corresponding values for `CCOC(=O)c1ccc(NC(=O)N2CC(C)OC(C)C2)cc1` (configuration not stated) are greater than 100000 nM and greater than 100 µM.
With `COc1ccc(-c2nn3ncccc3c2-c2ccnc(Nc3ccc(Cl)c(C(F)(F)F)c3)n2)cc1`, the GI50 was 5810 nM and the TGI is greater than 20.9 µM.
For `O=C(Nc1ccc(N2CCNCC2)cc1)c1[nH]ncc1Nc1ncnc2sc3c(c12)CCC3`, in that order: 481 nM and 2.23 µM.
For `COc1ccc2nc(N/N=C(\C)c3ccccn3)cc(C)c2c1`, in that order: 233 nM and 0.815 µM.
With `CNC(=O)c1cc(OC2CCC(NC(=O)Nc3ccc(Cl)c(C(F)(F)F)c3)CC2)ccn1` (configuration not stated), the GI50 was 3350 nM and the TGI was 14.5 µM.
For `COCCOc1ccc2ncc(C#Cc3cncc(C(=O)Nc4ccc(CN5CCN(C)CC5)c(C(F)(F)F)c4)c3)n2n1`, in that order: 988 nM and 2.8 µM.
The corresponding values for `C=C1CC2(OC1=O)C(=O)N(CCCCCCCN1C(=O)C3(CC(=C)C(=O)O3)c3ccccc31)c1ccccc12` (configuration not stated) are 984 nM and 3.74 µM.
Take `CNc1ccc2nc3ccc(=[N+](C)C)cc-3sc2c1`: the GI50 was 801 nM and 542 nM; the TGI is 2.89 µM and 3.05 µM.
For the compound `O=c1oc2cc(OS(=O)(=O)c3ccc(F)cc3)ccc2c2c1CCCCC2`, the GI50 was 3870 nM and the TGI is greater than 100 µM.
For `COc1cc(/C(C#N)=C/c2ccc3c(c2OC)OCO3)cc2c1OCO2`, in that order: 59.2 nM and 2.07 µM.
For `Cc1ccc(-[n+]2c3cc(N)c(C)cc3nc3cc(C)c(Nc4ccccc4)cc32)cc1`, in that order: 108 nM and 0.371 µM.
As to `O=[N+]([O-])C1C(c2ccccc2)C12c1ccccc1-c1ccccc12` (configuration not stated), the GI50 is 582 nM and the TGI was 13.6 µM.
The corresponding values for `COc1ccc2c(c1)[nH]c(=O)c1c3cc(C)c(C)cc3cn21` are 155 nM and 1.59 µM.
The corresponding values for `CN(C)c1cccc2c(S(=O)(=O)N[C@H]3CC[C@H]4[C@@H]5CCc6cc(O)ccc6[C@H]5CC[C@]34C)cccc12` are 2100 nM and 9.71 µM.
The corresponding values for `COc1cc(-c2nn(-c3ccc(NC(=O)c4ccc(Cl)c(Cl)c4)cc3)cc2-c2ccncc2)ccc1Cl` are 4350 nM and greater than 100 µM.
For `COc1ccc(-c2nc3sc(C)cn3c2/C=C/C(=O)c2cc(OC)c(OC)c(OC)c2)cc1`, the GI50 was 2760 nM and the TGI is 9.35 µM.
For `CC(=O)Nc1ccc2c(c1)c(C1=C(c3cn(C)c4ccccc34)C(=O)NC1=O)cn2C`, in that order: 790 nM and greater than 25 µM.
For `Cc1ccc2[nH]cc(-c3nc(-c4c[nH]c5ncccc45)cs3)c2c1`, in that order: greater than 100000 nM and greater than 100 µM.
The corresponding values for `C=C1C(=O)O[C@H]2[C@H]1CC/C(COC(=O)c1cc3cc(F)ccc3[nH]1)=C\CC[C@@]1(C)O[C@@H]21` are 1860 nM and 3.79 µM.
`COc1cc2c(cc1OC)C(=O)/C(=C/c1cccc(OCC(=O)c3ccccc3)c1)C2`: the GI50 is 8210 nM and the TGI is greater than 100 µM.
